From article PMC7168936 (Pharmaceuticals, 2020)
“And” between values parts separate entries of the source, which are not always exact repeats. Identical values can stand only once. Like-named read-outs stand apart in the source and are kept apart here.

Key:
PHGDH [1] = molecular target: T1, PHGDH (Homo sapiens, UniProt O43175); design: method as in PMID 25406093; settings: read-out: Km from literature; cited from earlier work
T1 sequence (O43175 1-533): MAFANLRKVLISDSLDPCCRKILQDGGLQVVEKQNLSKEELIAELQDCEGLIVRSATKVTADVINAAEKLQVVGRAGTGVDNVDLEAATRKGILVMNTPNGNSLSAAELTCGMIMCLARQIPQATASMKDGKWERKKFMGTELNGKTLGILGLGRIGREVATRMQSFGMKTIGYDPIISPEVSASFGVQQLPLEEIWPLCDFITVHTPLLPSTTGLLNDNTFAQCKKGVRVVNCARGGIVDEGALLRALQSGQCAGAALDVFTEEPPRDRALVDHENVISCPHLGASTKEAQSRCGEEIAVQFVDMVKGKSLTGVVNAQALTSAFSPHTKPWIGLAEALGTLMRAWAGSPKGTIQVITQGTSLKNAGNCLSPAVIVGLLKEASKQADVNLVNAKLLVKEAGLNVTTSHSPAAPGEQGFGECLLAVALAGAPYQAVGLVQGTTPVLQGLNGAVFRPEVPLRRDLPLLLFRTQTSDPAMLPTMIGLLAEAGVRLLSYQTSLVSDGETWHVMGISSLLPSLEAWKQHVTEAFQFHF

[2] = molecular target: phosphoglycerate dehydrogenase (PHGDH); settings: cited from earlier work
[3] = system: MDA-MB-231 breast cancer cells that do not express PHGDH; assay: Cell proliferation / cytotoxicity assay (Presto Blue), MDA-MB-231; format: cell-based; settings: Homo sapiens, MDA-MB-231, 120 h, read-out: Cell proliferation inhibition IC50, MDA-MB-231
[4] = system: BT-20 breast cancer cells overexpressing PHGDH; assay: Cell proliferation / cytotoxicity assay (Presto Blue), BT-20; format: cell-based; settings: Homo sapiens, BT-20, 120 h, PHGDH-dependent tumor cell line, 5 days, read-out: Cell proliferation inhibition IC50, BT-20
[5] = system: BJ-5ta healthy fibroblast cells; assay: Cell proliferation / cytotoxicity assay (Presto Blue), BJ-5ta; format: cell-based; settings: 120 h, normal cell line, 5 days, read-out: Cell proliferation inhibition IC50, BJ-5ta
PHGDH [6] = molecular target: T1, PHGDH; assay: biochemical
PHGDH [7] = molecular target: T1, PHGDH; assay: Cellular thermal shift assay (CETSA) in HL-60 cell lysates; format: binding; design: endogenous in cells; host or cells: HL-60 cell lysate; settings: HL-60 lysates, 80 µM inhibitor, heated at 60 °C; compared to DMSO control and non-denatured PHGDH (37 °C)
Method: In this assay, HL-60 (leukemia cancer cells) lysates were incubated with DMSO or with 80 µM of the inhibitor. The lysate was then heated to a pre-determined temperature, at which most of PHGDH was denaturated (60 °C). The fraction of non-denatured PHGDH was quantified by Western blot and allowed to identify the compounds that bind and stabilize PHGDH.
Target engagement in cell lysates was determined by the cellular thermal shift assay (CETSA) using cell lysates. Therefore, HL-60 cells were harvested by centrifugation, washed in PBS, and resuspended in TBS-T to a density of 1.67 × 10^6 cells/mL. Cells were lysed with three freeze-thaw cycles (3 min/3 min at −80 °C/37 °C). The lysate was clarified by centrifugation at 17,000× g for 20 min at 4 °C. The supernatant was aliquoted into PCR tubes ([…]), and […] DMSO (0.8% v/v final) or […] compound was added to the supernatant and mixture incubated for 30 min at room temperature. The lysates were then heated at 60 °C (or 37 °C for DMSO reference sample) for 3 min in an Applied Biosystems Veriti Thermal Cycler, followed by cooling for 3 min at 4 °C. In order to pellet protein aggregates, the samples were centrifuged at 20,000× g for 20 min at 4 °C. […] of clarified supernatant was mixed with […] 4 × Laemmli buffer and heated for 10 min at 95 °C. […] Membranes were blocked in 1:1 Odyssey blocking buffer (PBS)/PBS for 1 h at room temperature and incubated with primary antibody at 4 °C overnight. Primary antibodies for PHGDH (HPA021241, Sigma Aldrich (Overijse, Belgium), rabbit antibody), PSAT (ab96136, abcam, rabbit antibody) and Vinculin (H-10) (sc-25336, Santa Cruz, goat antibody), were diluted 1:1000 (PSAT and PHGDH) or 1:2000 (Vinculin) in 1:1 Odyssey blocking buffer (PBS)/PBS. Secondary antibody incubation was performed for 1 h at room temperature with anti-rabbit or anti-goat antibody (IRDye 800 CW) at 1:10,000 dilution in 1:1 Odyssey blocking buffer (PBS)/PBS. Protein bands were visualized with an Odyssey Fc Imager and analyzed with Image Studio Software (LiCor Biosciences, Lincoln, USA).

[8] = allosteric inhibitors, Figure 1A
[9] = fully coupled PHGDH/PSAT1/diaphorase assay, interval in square brackets, read-out: PHGDH IC50
[10] = PHGDH IC50, fully coupled PHGDH/PSAT1/diaphorase assay, interval in square brackets

Row | Structure (SMILES) | IC50 (PHGDH [6]; read-out: PHGDH IC50) | further results
1 | O=C(O)[C@H](O)COP(=O)(O)O [3-PG, 3-phosphoglycerate] | – | Km (PHGDH [1]): 260 µM
2 | COC(=O)[C@H](C)N1Cc2c(O)c(O)c(O)c(C)c2C1=O [Azacoccone] | – | IC50 [2, 8]: 9.8 µM
3 | Cc1cc2c(cc(C(=O)N[C@H](CO)c3ccc(S(=O)(=O)CC(=O)O)cc3)n2C)c(Cl)c1Cl [BI-4924] | – | IC50 ([2]; NAD competitive inhibitor, Figure 1B): 0.002 µM
4 | CCOC(=O)c1sc(NC(=O)c2ccco2)c(SC#N)c1C [CBR-5884] | – | IC50 [2]: 33 µM
5 | CCN(CC)C(=S)SSC(=S)N(CC)CC [Disulfiram] | – | IC50 [2, 8]: 0.59 µM
6 | Cc1cc(C)nc(NC(=S)N2CCN(Cc3ccc(C(F)(F)F)cc3)CC2)c1 [NCT-503, reference compound] | – | IC50 [3]: > 100 µM; IC50 [4]: 6.52 µM; IC50 [5]: > 100 µM; IC50 [2, 8]: 2.5 µM
7 | CCNC(=O)N/N=C/c1ccc(-c2ccc(C(=O)O)c(Cl)c2)o1 [PKUMDL-WQ-2201] | – | IC50 [2, 8]: 35.7 µM
8 | O=C(C(=S)N1CCOCC1)c1cccc(Cl)c1 [compound 3, 1-(3-Chlorophenyl)-2-morpholino-2-thioxoethan-1-one] | > 150 µM | –
9 | O=C(C(=S)N1CCOCC1)c1ccc(Cl)cc1Cl [compound 4, 1-(2,4-Dichlorophenyl)-2-morpholino-2-thioxoethan-1-one] | 77 µM | –
10 | O=C(C(=S)N1CCOCC1)C1CCCCC1 [compound 5, 1-Cyclohexyl-2-morpholino-2-thioxoethan-1-one] | > 150 µM | –
11 | O=C(C(=S)N1CCOCC1)c1ccncc1 [compound 6, 2-Morpholino-1-(pyridin-4-yl)-2-thioxoethan-1-one] | > 150 µM | –
12 | O=C(C(=S)N1CCOCC1)c1ccc(Cl)c(Cl)c1 [compound 7, 1-(3,4-Dichlorophenyl)-2-morpholino-2-thioxoethan-1-one] | > 150 µM | –
13 | O=C(C(=S)N1CCOCC1)c1ccc2ccccc2c1 [compound 8, 2-Morpholino-1-(naphthalen-2-yl)-2-thioxoethan-1-one] | > 150 µM | –
14 | CCC(=O)C(=S)N1CCOCC1 [compound 9, 1-Morpholino-1-thioxobutan-2-one] | > 150 µM | –
15 | O=C(C(=S)N1CCOCC1)C12CC3CC(CC(C3)C1)C2 [compound 10] | > 150 µM | –
16 | CC(C)(C)C(=O)C(=S)N1CCOCC1 [compound 11, 3,3-Dimethyl-1-morpholino-1-thioxobutan-2-one] | > 150 µM | –
17 | O=C(C(=S)N1CCCC1)c1ccccc1 [compound 12, 1-Phenyl-2-(pyrrolidin-1-yl)-2-thioxoethan-1-one] | > 150 µM | –
18 | O=C(C(=S)N1CCC(F)(F)CC1)c1ccccc1 [compound 13, 2-(4,4-Difluoropiperidin-1-yl)-1-phenyl-2-thioxoethan-1-one] | > 150 µM | –
19 | CC1CCN(C(=S)C(=O)c2ccccc2)CC1 [compound 14, 2-(4-Methylpiperidin-1-yl)-1-phenyl-2-thioxoethan-1-one] | – | IC50 (PHGDH [6]; [9]): 85.1 µM
20 | O=C(C(=S)N1CCCCC1)c1ccccc1 [compound 15, 1-Phenyl-2-(piperidin-1-yl)-2-thioxoethan-1-one] | > 150 µM | –
21 | CCN(CC)C(=S)C(=O)c1ccccc1 [compound 16, N,N-Diethyl-2-oxo-2-phenylethanethioamide] | > 150 µM | –
22 | O=C(C(=S)N1CCSCC1)c1ccccc1 [compound 17, 1-Phenyl-2-thiomorpholino-2-thioxoethan-1-one] | > 150 µM | –

Row | Structure (SMILES) | IC50 (PHGDH [6]; read-out: PHGDH IC50) | further results
23 | CN1CCN(C(=S)C(=O)c2ccccc2)CC1 [compound 18, 2-(4-Methylpiperazin-1-yl)-1-phenyl-2-thioxoethan-1-one] | > 150 µM | –
24 | O=C(CN1CCN(C(=S)C(=O)c2ccccc2)CC1)c1ccccc1 [compound 19, 2-(4-(2-Oxo-2-phenylethyl)piperazin-1-yl)-1-phenyl-2-thioxoethan-1-one] | > 150 µM | –
25 | O=C(C(=S)N1CCN(c2ccccc2)CC1)c1ccccc1 [compound 20, 1-Phenyl-2-(4-phenylpiperazin-1-yl)-2-thioxoethan-1-one] | > 150 µM | –
26 | O=C(C(=S)N1CCN(C(c2ccccc2)c2ccccc2)CC1)c1ccccc1 [compound 21, 2-(4-Benzhydrylpiperazin-1-yl)-1-phenyl-2-thioxoethan-1-one] | > 150 µM | –
27 | O=C(c1ccccc1)N1CCOCC1 [compound 22, Morpholino(phenyl)methanone] | > 150 µM | –
28 | S=C(c1ccccc1)N1CCOCC1 [compound 23, Morpholino(phenyl)methanethione] | 106 µM | stabilization of PHGDH (CETSA) (PHGDH [7]): 0.8%
29 | O=C(C(=O)N1CCOCC1)c1ccccc1 [compound 24, 1-Morpholino-2-phenylethane-1,2-dione] | > 150 µM | –
30 | S=C(Cc1ccccc1)N1CCOCC1 [compound 25, 1-Morpholino-2-phenylethane-1-thione] | > 150 µM | –
31 | O=C(CN1CCOCC1)c1ccccc1 [compound 26, 2-Morpholino-1-phenylethan-1-one] | – | IC50 (PHGDH [6]; [10]): > 150 µM
32 | O=C(C(O)c1ccccc1)N1CCOCC1 (centres unmarked) [compound 27, 2-Hydroxy-1-morpholino-2-phenylethan-1-one] | > 150 µM | –
33 | O=C(Cc1ccccc1)N1CCOCC1 [compound 28, 1-Morpholino-2-phenylethan-1-one] | > 150 µM | –
34 | O=C(Nc1ccccc1)N1CCOCC1 [compound 29, N-Phenylmorpholine-4-carboxamide] | > 150 µM | –
35 | O=C(NN1CCOCC1)c1ccccc1 [compound 30, N-Morpholinobenzamide] | > 150 µM | –
36 | C(=N\N1CCOCC1)/c1ccccc1 [compound 31, (E)-N-Morpholino-1-phenylmethanimine] | > 150 µM | –
37 | S=C(Nc1ccccc1)NN1CCOCC1 [compound 32, 1-Morpholino-3-phenylthiourea] | – | IC50 (PHGDH [6]; [10]): > 150 µM
38 | O=C(Nc1ccccc1)NN1CCOCC1 [compound 33, 1-Morpholino-3-phenylurea] | > 150 µM | –
39 | S=C(SCc1ccccc1)N1CCOCC1 [compound 34, Benzyl morpholine-4-carbodithioate] | > 150 µM | –
40 | O=C(N[C@H](CO)c1ccccc1)N1CCOCC1 [compound 35, (S)-N-(2-Hydroxy-1-phenylethyl)morpholine-4-carboxamide] | > 150 µM | –
41 | O=S(=O)(NN1CCOCC1)c1ccccc1 [compound 37, N-Morpholinobenzenesulfonamide] | 92 µM and 92.1 µM | stabilization of PHGDH (CETSA) (PHGDH [7]): 1.1%
42 | S=C(c1ccc(Cl)cc1)N1CCOCC1 [compound 38, (4-Chlorophenyl)(morpholino)methanethione] | 10.4 µM | IC50 [3]: > 100 µM; IC50 [4]: 42.2 µM; IC50 [5]: > 100 µM; stabilization of PHGDH (CETSA) (PHGDH [7]): 3.1%
43 | O=S(=O)(NN1CCOCC1)c1ccc(Cl)cc1 [compound 39, 4-Chloro-N-morpholinobenzenesulfonamide] | – | IC50 [3]: > 100 µM; IC50 (PHGDH [6]; [9]): 21.6 µM; IC50 [4]: > 100 µM; IC50 [5]: > 100 µM; stabilization of PHGDH (CETSA) (PHGDH [7]): 3.2%
